Results published in US9643974B2, “Amino-substituted imidazopyridazines” (Bayer Intellectual Property GmbH, priority 2011, dated 2017).
Structures can show the parent of a compound that is named as a salt.

Tests used:
[1] = biological target: T1, human full-length MKNK1 (Homo sapiens, UniProt Q9BUB5, T385D); experiment: MKNK1 kinase high ATP assay (TR-FRET-based); assay type: biochemical; conditions: ATP final conc. 2 mM, 15 min preincubation, 30 min reaction at 22° C.
T1 construct: purchased Carna Biosciences 02-145; host or cells: insect cells (baculovirus expression system)
Experimental: MKNK1 Kinase High ATP Assay
MKNK1-inhibitory activity at high ATP of compounds of the present invention after their preincubation with MKNK1 was quantified employing the TR-FRET-based MKNK1 high ATP assay as described in the following paragraphs.
(§1) A recombinant fusion protein of Glutathione-S-Transferase (GST, N-terminally) and human full-length MKNK1 (amino acids 1-424 and T344D of accession number BAA 19885.1), expressed in insect cells using baculovirus expression system and purified via glutathione sepharose affinity chromatography, was purchased from Carna Biosciences (product no 02-145) and used as enzyme. As substrate for the kinase reaction the biotinylated peptide biotin-Ahx-IKKRKLTRRKSLKG (C-terminus in amide form) was used, which can be purchased e.g. from the company Biosyntan (Berlin-Buch, Germany).
(§2) For the assay 50 nL of a 100 fold concentrated solution of the test compound in DMSO was pipetted into a black low volume 384 well microtiter plate (Greiner Bio-One, Frickenhausen, Germany), 2 μL of a solution of MKNK1 in aqueous assay buffer [50 mM HEPES pH 7.5, 5 mM magnesium chloride, 1.0 mM dithiothreitol, 0.005% (v/v) Nonidet-P40 (Sigma)] was added and the mixture was incubated for 15 min at 22° C. to allow pre-binding of the test compounds to the enzyme before the start of the kinase reaction. Then the kinase reaction was started by the addition of 3 μL of a solution of adenosine-tri-phosphate (ATP, 3.3 mM=>final conc. in the 5 μL assay volume is 2 mM) and substrate (0.1 μM=>final conc. in the 5 μL assay volume is 0.06 μM) in assay buffer and the resulting mixture was incubated for a reaction time of 30 min at 22° C. The concentration of MKNK1 was adjusted depending of the activity of the enzyme lot and was chosen appropriate to have the assay in the linear range, typical concentrations were in the range of 0.003 μg/mL. The reaction was stopped by the addition of 5 μL of a solution of TR-FRET detection reagents (5 nM streptavidine-XL665 [Cisbio Bioassays, Codolet, France] and 1 nM anti-ribosomal protein S6 (pSer236)-antibody from Invitrogen [#44921G] and 1 nM LANCE EU-W1024 labeled ProteinG [Perkin-Elmer, product no. AD0071]) in an aqueous EDTA-solution (100 mM EDTA, 0.1% (w/v) bovine serum albumin in 50 mM HEPES pH 7.5).
(§3) The resulting mixture was incubated for 1 h at 22° C. to allow the formation of complex between the phosphorylated biotinylated peptide and the detection reagents. Subsequently the amount of phosphorylated substrate was evaluated by measurement of the resonance energy transfer from the Eu-chelate to the streptavidine-XL. Therefore, the fluorescence emissions at 620 nm and 665 nm after excitation at 350 nm were measured in a TR-FRET reader, e.g. a Rubystar (BMG Labtechnologies, Offenburg, Germany) or a Viewlux (Perkin-Elmer). The ratio of the emissions at 665 nm and at […] was taken as the measure for the amount of phosphorylated substrate. The data were normalised (enzyme reaction without inhibitor=0% inhibition, all other assay components but no enzyme=100% inhibition).

[2] = biological target: T2, human full-lengt MKNK1 (Homo sapiens, UniProt Q9BUB5, T385D); experiment: MKNK1 kinase assay (MKNK1 TR-FRET assay); assay type: biochemical; conditions: ATP final conc. 10 μM, 15 min preincubation, 45 min reaction at 22° C.
T2 construct: purchased Carna Biosciences 02-145; host or cells: insect cells (baculovirus expression system)
Excerpt: MKNK1-inhibitory activity of compounds of the present invention was quantified employing the MKNK1 TR-FRET assay as described in the following paragraphs.
as §1, with “human full-lengt” for “human full-length”, “was used” for “was used,”, “e.g. form” for “e.g. from”
as §2, with “16.7 μM=>final” for “3.3 mM=>final”, “10 μM)” for “2 mM)”, “45” for “30”, “0.05 μg/ml.” for “0.003 μg/mL.”
as §3, with “inhibition). Usually the test compounds were tested on the same microtiterplate in 11 different concentrations in the range of 20 μM to 0.1 nM (20 μM, 5.9 μM, 1.7 μM, 0.51 μM, 0.15 μM, 44 nM, 13 nM, 3.8 nM, 1.1 nM, 0.33 nM and 0.1 nM, the dilution series prepared separately before the assay on the level of the 100 fold concentrated solutions in DMSO by serial 1:3.4 dilutions) in duplicate values for each concentration and […] were calculated by a 4 parameter fit.” for “inhibition).”

T2 sequence (Q9BUB5 1-424 isoform Q9BUB5-2 T344D): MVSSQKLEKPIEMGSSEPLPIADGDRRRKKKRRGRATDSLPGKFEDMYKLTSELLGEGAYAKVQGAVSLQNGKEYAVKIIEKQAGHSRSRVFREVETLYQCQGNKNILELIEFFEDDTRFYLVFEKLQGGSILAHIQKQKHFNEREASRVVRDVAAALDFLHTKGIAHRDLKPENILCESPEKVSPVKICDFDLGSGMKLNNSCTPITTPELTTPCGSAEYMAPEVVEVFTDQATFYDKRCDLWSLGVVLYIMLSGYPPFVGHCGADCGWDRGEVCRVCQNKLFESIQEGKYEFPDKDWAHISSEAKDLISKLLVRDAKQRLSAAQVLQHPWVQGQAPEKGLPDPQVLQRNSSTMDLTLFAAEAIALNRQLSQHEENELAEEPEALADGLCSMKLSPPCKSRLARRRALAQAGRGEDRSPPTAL
T1 sequence (Q9BUB5 1-424 isoform Q9BUB5-2 T344D): as above

| Compound | IC50 [1] [nM] | IC50 [2] [nM] |
| --- | --- | --- |
| COc1nccc2oc(-c3cnc4ccc(OC[C@@H](C)N)nn34)cc12 [Example 3, (2R)-1-{[3-(4-Methoxyfuro[3,2-c]pyridin-2-yl)imidazo[1,2-b]pyridazin-6-yl]-oxy}propan-2-amine] | 27 | 11 |
| N[C@H]1C[C@H](Oc2ccc3ncc(-c4cc5ccncc5o4)n3n2)C1 [Example 13, trans-3-{[3-(Furo[2,3-c]pyridin-2-yl)imidazo[1,2-b]pyridazin-6-yl]oxy}-cyclobutanamine salt with formic acid] | 16 | 5 |
| COc1nccc2oc(-c3cnc4ccc(OC[C@H](N)c5ccccc5)nn34)cc12 [Example 9, (1R)-2-{[3-(4-Methoxyfuro[3,2-c]pyridin-2-yl)imidazo[1,2-b]pyridazin-6-yl]oxy}-1-phenylethanamine] | 94 | 48 |
| C[C@H](N)COc1ccc2ncc(-c3cc4ccncc4o3)n2n1 [Example 12, (2S)-1-{[3-(Furo[2,3-c]pyridin-2-yl)imidazo[1,2-b]pyridazin-6-yl]oxy}propan-2-amine] | 65 | 26 |
| COc1nccc2oc(-c3cnc4ccc(OC[C@H](C)N)nn34)cc12 [Example 5, (2S)-1-{[3-(4-Methoxyfuro[3,2-c]pyridin-2-yl)imidazo[1,2-b]pyridazin-6-yl]-oxy}propan-2-amine] | 65 | 21 |
| N[C@@H](COc1ccc2ncc(-c3cc4cnccc4o3)n2n1)c1ccccc1 [Example 7, (1R)-2-{[3-(Furo[3,2-c]pyridin-2-yl)imidazo[1,2-b]pyridazin-6-yl]oxy}-1-phenylethanamine] | 91 | 25 |
| COc1nccc2oc(-c3cnc4ccc(O[C@H]5C[C@H](N)C5)nn34)cc12 [Example 2, trans-3-{[3-(4-Methoxyfuro[3,2-c]pyridin-2-yl)imidazo[1,2-b]pyridazin-6-yl]-oxy}cyclobutanamine] | 5 | 3 |

Now from value to compound:

| IC50 [1] [nM] | IC50 [2] [nM] | Compound |
| --- | --- | --- |
| 13 | 7 | N[C@H]1C[C@H](Oc2ccc3ncc(-c4cc5ncccc5o4)n3n2)C1 [Example 28, trans-3-{[3-(Furo[3,2-b]pyridin-2-yl)imidazo[1,2-b]pyridazin-6-yl]oxy}cyclobutanamine] |
| 4 | 3 | CC(C)(C)COc1nccc2oc(-c3cnc4ccc(O[C@H]5C[C@H](N)C5)nn34)cc12 [Example 24, trans-3-({3-[4-(2,2-Dimethylpropoxy)furo[3,2-c]pyridin-2-yl]imidazo[1,2-b]-pyridazin-6-yl}oxy)cyclobutanamine] |
| 57 | 32 | COc1nccc2oc(-c3cnc4ccc(OCC(CN)c5ccccc5)nn34)cc12 (stereo not shown) [Example 23, 3-{[3-(4-Methoxyfuro[3,2-c]pyridin-2-yl)imidazo[1,2-b]pyridazin-6-yl]oxy}-2-phenylpropan-1-amine] |
| 17 | 7 | CC(C)Oc1nccc2oc(-c3cnc4ccc(O[C@H]5C[C@H](N)C5)nn34)cc12 [Example 37, trans-3-({3-[4-(Propan-2-yloxy)furo[3,2-c]pyridin-2-yl]imidazo[1,2-b]pyridazin-6-yl}oxy)cyclobutanamine] |
| 4 | 4 | CCOc1nccc2oc(-c3cnc4ccc(O[C@H]5C[C@H](N)C5)nn34)cc12 [Example 36, trans-3-{[3-(4-Ethoxyfuro[3,2-c]pyridin-2-yl)imidazo[1,2-b]pyridazin-6-yl]oxy}-cyclobutanamine] |
| 44 | 21 | N[C@H]1C[C@H](Oc2ccc3ncc(-c4cc5c(O)nccc5o4)n3n2)C1 [Example 35, 2-{6-[(trans-3-Aminocyclobutyl)oxy]imidazo[1,2-b]pyridazin-3-yl}furo[3,2-c]-pyridin-4-ol] |
| 79 | 14 | COc1nccc2oc(-c3cnc4ccc(OCC(C)(C)N)nn34)cc12 [Example 22, 1-{[3-(4-Methoxyfuro[3,2-c]pyridin-2-yl)imidazo[1,2-b]pyridazin-6-yl]oxy}-2-methylpropan-2-amine] |
